Legend:
[1] = system: synaptosomes from the striatal area of rat brain; assay: [3H]-dopamine release from striatal synaptosomes, continuous perfusion; assay type: cell-based, Sprague-Dawley rats; details: 0.2 ml of a 20 μM solution of ligand, relative to equal concentration of S(-) nicotine, read-out: Dopamine Release (percent release relative to S(-) nicotine)
Experimental: Dopamine release was measured by preparing synaptosomes from the striatal area of rat brain obtained from Sprague-Dawley rats generally according to the procedures set forth by Nagy, et al., J. Neurochem., Vol. 43, pp. 1114-1123 (1984). Striata from 4 rats were homogenized in 2 ml of 0.32M sucrose buffered with 5 mM HEPES (pH 7.5), using a glass-teflon tissue grinder. The homogenate was diluted to 5 ml with additional homogenization solution and centrifuged at 1000×g for 10 min. This procedure was repeated on the new pellet and the resulting supernatant was centrifuged at 12,000×g for 20 min. […] Using this method, 30 to 90 percent of the dopamine was taken up into the synaptosomes, as determined by scintillation counting following filtration through glass fiber filters soaked with 0.5 percent polyethyleneimine. […] After the addition of a 0.2 ml of a 20 μM solution of ligand, the perfusate was collected into scintillation vials at 1 min. intervals and the dopamine released was quantified by scintillation counting. Peaks of radioactivity released above background were summed and the average basal release during that time was subtracted from the total. Release was expressed as a percentage of release obtained with an equal concentration of S(-) nicotine.

[2] = molecular target: high affinity nicotinic receptors; assay: Inhibition of L-[3H]nicotine binding to mouse brain membrane preparations; parameters: species or system Mice (DBA strain); details: 10 nM L-[3H]nicotine, 2 hr at 4° C., mouse brain membranes, Ki calculated from IC50 by Cheng method
Experimental: Mice (DBA strain) were maintained on a 12 hour light/dark cycle and were allowed free access to water and food supplied by Wayne Lab Blox, Madison, WI. Animals used in the present studies were 60 to 90 days of age and weighed 20 to 25 g. Brain membrane preparations were obtained from pooled brain tissue of both males and females.
Mice were killed by cervical dislocation. Brains were removed and placed on an ice-cold platform. The cerebellum was removed and the remaining tissue was placed in 10 volumes (weight:volume) of ice-cold buffer (Krebs-RingersHEPES:NaCl, 118 mM; KCl, 4.8 mM; CaCl2, 2.5 mM; MgSO4, 1.2 mM; HEPES, 20 mM; pH to 7.5 with NaOH) and homogenized with a glass-Teflon tissue grinder. The resulting homogenate was centrifuged at 18000×g for 20 min. and the resulting pellet was resuspended in 20 volumes of water. […] Protein was determined by the method of Lowry, et al., J. Biol. Chem., Vol. 193, pp. 265-275 (1951), using bovine serum albumin as the standard.
The binding of L-[^3 H]nicotine was measured using a modification of the method of Romano, et al., Science, Vol. 210, pp. 647-650 (1980) as described previously by Marks, et al., Mol. Pharmacol., Vol. 30, pp. 427-436 (1986). The binding of L-[^3 H]nicotine was measured using a 2 hr. incubation at 4° C. […] Nonspecific binding was determined by inclusion of 10 μM nonradioactive nicotine in the incubations. […]

CNCC/C=C/c1cccnc1 [trans-meta-nicotine]
Emax [1]: 70%
Ki [2]: 21 ± 5 nM
